Columns and labels:
[1] = biological target: T1, 5-hydroxytryptamine receptor 1A (Rattus norvegicus, UniProt P19327); format: cell membranes, CHO-K1, Membrane; note: in other assays of this panel Not Active means under 50% inhibition at 10 µM
T1 sequence (P19327 whole entry): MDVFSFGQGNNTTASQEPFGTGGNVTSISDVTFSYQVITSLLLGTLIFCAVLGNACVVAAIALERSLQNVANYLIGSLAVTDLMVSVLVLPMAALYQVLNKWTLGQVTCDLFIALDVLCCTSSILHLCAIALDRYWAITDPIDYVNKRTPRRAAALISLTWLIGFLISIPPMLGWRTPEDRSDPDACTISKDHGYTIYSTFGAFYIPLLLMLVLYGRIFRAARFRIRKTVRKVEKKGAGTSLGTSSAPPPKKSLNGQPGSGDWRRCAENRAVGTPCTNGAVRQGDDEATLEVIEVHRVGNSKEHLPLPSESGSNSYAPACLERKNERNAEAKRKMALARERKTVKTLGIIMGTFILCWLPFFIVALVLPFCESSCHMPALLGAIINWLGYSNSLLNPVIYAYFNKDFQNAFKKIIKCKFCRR

Progesterone receptor = biological target: T2, Progesterone receptor (Bos taurus, UniProt Q690N0); assay: DRUGMATRIX: Progesterone radioligand binding (ligand: [3H] R-5020); format: tissue-based, Uterus; details: Not Active = under 50% inhibition at 10 µM
T2 sequence (Q690N0 whole entry): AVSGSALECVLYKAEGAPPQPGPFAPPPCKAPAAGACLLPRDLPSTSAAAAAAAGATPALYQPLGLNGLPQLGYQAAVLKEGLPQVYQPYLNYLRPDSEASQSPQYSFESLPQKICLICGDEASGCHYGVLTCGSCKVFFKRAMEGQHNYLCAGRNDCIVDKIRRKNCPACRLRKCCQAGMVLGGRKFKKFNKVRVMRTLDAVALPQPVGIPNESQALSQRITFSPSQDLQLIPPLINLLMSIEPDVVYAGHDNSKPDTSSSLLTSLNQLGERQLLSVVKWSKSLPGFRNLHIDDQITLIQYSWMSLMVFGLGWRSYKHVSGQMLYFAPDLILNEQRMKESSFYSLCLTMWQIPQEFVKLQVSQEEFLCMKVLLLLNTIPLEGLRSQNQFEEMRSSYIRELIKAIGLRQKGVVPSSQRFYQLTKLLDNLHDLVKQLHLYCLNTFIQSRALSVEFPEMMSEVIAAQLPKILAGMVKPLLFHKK

Thromboxane-A synthase = biological target: T3, Thromboxane-A synthase (Homo sapiens, UniProt P24557); assay: biochemical; format: tissue-based, Platelet; details: platelet;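 note: enzyme inhibition assay with PGH2 supplied as substrate; in other assays of this panel Not Active means under 50% inhibition at 10 µM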
T3 sequence (P24557 whole entry): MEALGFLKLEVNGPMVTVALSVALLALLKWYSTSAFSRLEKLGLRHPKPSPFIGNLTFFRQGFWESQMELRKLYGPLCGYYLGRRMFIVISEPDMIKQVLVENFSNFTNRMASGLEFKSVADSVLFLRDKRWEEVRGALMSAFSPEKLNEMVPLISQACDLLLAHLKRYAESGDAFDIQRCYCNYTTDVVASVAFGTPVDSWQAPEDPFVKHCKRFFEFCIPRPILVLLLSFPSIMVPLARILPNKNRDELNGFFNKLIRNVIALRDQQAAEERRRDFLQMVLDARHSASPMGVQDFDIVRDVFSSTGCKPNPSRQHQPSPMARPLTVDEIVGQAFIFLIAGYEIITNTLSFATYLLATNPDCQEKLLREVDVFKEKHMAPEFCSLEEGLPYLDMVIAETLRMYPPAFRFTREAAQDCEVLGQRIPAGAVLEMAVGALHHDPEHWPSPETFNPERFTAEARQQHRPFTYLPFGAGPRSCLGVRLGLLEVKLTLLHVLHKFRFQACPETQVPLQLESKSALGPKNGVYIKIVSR

[2] = DRUGMATRIX: Potassium Channel [KATP] radioligand binding (ligand: [3H] Glyburide); format: cell membranes, Membrane; details: hit-t15; Not Active = under 50% inhibition at 10 µM
[3] = DRUGMATRIX: Glutamate, AMPA radioligand binding (ligand: [3H] AMPA); format: cell membranes, Rattus norvegicus, Wistar, Cerebral cortex, Membrane; details: Not Active = under 50% inhibition at 10 µM
[4] = biological target: C-C chemokine receptor type 5 (Homo sapiens, UniProt P51681); format: cell membranes, Membrane; details: hek293; note: in other assays of this panel Not Active means under 50% inhibition at 10 µM
Chain of C-C chemokine receptor type 5 (P51681 whole entry): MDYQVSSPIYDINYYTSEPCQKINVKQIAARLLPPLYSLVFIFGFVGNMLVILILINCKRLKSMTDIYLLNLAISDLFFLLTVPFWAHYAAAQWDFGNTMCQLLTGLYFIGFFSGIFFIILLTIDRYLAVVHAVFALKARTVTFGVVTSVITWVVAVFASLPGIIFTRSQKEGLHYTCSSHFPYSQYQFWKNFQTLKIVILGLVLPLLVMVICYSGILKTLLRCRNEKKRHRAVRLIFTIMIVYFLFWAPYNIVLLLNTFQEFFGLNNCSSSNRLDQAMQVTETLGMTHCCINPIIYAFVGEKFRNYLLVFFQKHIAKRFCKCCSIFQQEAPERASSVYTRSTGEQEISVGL

| Molecule | IC50 ([1]; cho-k1) | IC50 (Progesterone receptor) | IC50 (Thromboxane-A synthase) | IC50 [2] | Ki [2] | IC50 [3] | Ki [3] | IC50 [4] | Ki ([1]; cho-k1) | Ki (Progesterone receptor) | Ki (Thromboxane-A synthase) | Ki [4] | IC50 ([1]; read-out: IC50) | Ki ([1]; read-out: Ki) | IC50 (Progesterone receptor; read-out: IC50) | Ki (Progesterone receptor; read-out: Ki) |
| --- | --- | --- | --- | --- | --- | --- | --- | --- | --- | --- | --- | --- | --- | --- | --- | --- |
| C[C@H]1O[C@@H](n2cc(F)c(=O)[nH]c2=O)[C@H](O)[C@@H]1O [DOXIFLURIDINE] | Not Active | Not Active | Not Active | Not Active | Not Active | Not Active | Not Active | Not Active | – | – | – | – | – | – | – | – |
| CC[C@H]1CN2CCc3cc(OC)c(OC)cc3[C@@H]2C[C@@H]1C[C@H]1NCCc2cc(OC)c(OC)cc21 [EMETINE] | Not Active | Not Active | Not Active | Not Active | Not Active | Not Active | Not Active | Not Active | – | – | – | – | – | – | – | – |
| O=c1cnn([C@@H]2O[C@H](CO)[C@@H](O)[C@H]2O)c(=O)[nH]1 [6-AZAURIDINE] | Not Active | Not Active | Not Active | Not Active | Not Active | Not Active | Not Active | Not Active | – | – | – | – | – | – | – | – |
| COC(=O)CCc1ccc(OCC(O)CNC(C)C)cc1 (stereo not given) [ESMOLOL] | Not Active | Not Active | Not Active | Not Active | Not Active | Not Active | Not Active | Not Active | – | – | – | – | – | – | – | – |
| C[C@@H]1O[C@@H](O[C@@H]2C=C3CC[C@@H]4[C@H](CC[C@]5(C)[C@@H](c6ccc(=O)oc6)CC[C@]45O)[C@@]3(C)CC2)[C@H](O)[C@H](O)[C@H]1O [PROSCILLARIDIN] | Not Active | Not Active | Not Active | Not Active | Not Active | Not Active | Not Active | Not Active | – | – | – | – | – | – | – | – |
| NYSTATIN | Not Active | Not Active | Not Active | Not Active | Not Active | Not Active | Not Active | Not Active | Not Active | Not Active | Not Active | Not Active | – | – | – | – |
| COc1cc(N)c(Cl)cc1C(=O)NC1CCN(CCCOc2ccc(F)cc2)CC1OC (stereo not given) [CISAPRIDE] | – | Not Active | Not Active | Not Active | Not Active | Not Active | Not Active | Not Active | – | – | – | – | 2830 nM | 1620 nM | – | – |
| C[C@@H]1C[C@H]2[C@@H]3CCC4=CC(=O)C=C[C@]4(C)[C@@]3(F)[C@@H](O)C[C@]2(C)[C@@]1(O)C(=O)CO [DEXAMETHASONE] | Not Active | – | Not Active | Not Active | Not Active | Not Active | Not Active | Not Active | – | – | – | – | – | – | 23300 nM | 3040 nM |
| O=C(c1ccccc1C(F)(F)F)N1CCC(Cc2ccccc2)CC1 | Not Active | Not Active | Not Active | Not Active | Not Active | Not Active | Not Active | Not Active | – | – | – | – | – | – | – | – |
| Brc1c(NC2=NCCN2)ccc2nccnc12 [BRIMONIDINE] | – | Not Active | Not Active | Not Active | Not Active | Not Active | Not Active | Not Active | – | – | – | – | 2550 nM | 1460 nM | – | – |
| CC1(C)S[C@@H]2[C@H](NC(=O)[C@H](N)c3ccccc3)C(=O)N2[C@H]1C(=O)O [AMPICILLIN] | Not Active | Not Active | Not Active | Not Active | Not Active | Not Active | Not Active | Not Active | – | – | – | – | – | – | – | – |
| C[n+]1ccccc1/C=N/O.[Cl-] [PRALIDOXIME CHLORIDE] | Not Active | Not Active | Not Active | Not Active | Not Active | Not Active | Not Active | Not Active | – | – | – | – | – | – | – | – |
| COc1cc2nc(N3CCN(C(=O)c4ccco4)CC3)nc(N)c2cc1OC [PRAZOSIN] | Not Active | Not Active | Not Active | Not Active | Not Active | Not Active | Not Active | Not Active | – | – | – | – | – | – | – | – |
| Cc1c(OCC(F)(F)F)ccnc1C[S+]([O-])c1nc2ccccc2[nH]1 (stereo not given) [LANSOPRAZOLE] | Not Active | Not Active | Not Active | Not Active | Not Active | Not Active | Not Active | Not Active | – | – | – | – | – | – | – | – |
| CN1[C@@H]2CC[C@H]1C[C@@H](OC(=O)C(CO)c1ccccc1)C2 (stereo not given in full) [ATROPINE] | Not Active | Not Active | Not Active | Not Active | Not Active | Not Active | Not Active | Not Active | – | – | – | – | – | – | – | – |
| COc1ccc(C2C(=O)c3ccccc3C2=O)cc1 [ANISINDIONE] | Not Active | Not Active | Not Active | Not Active | Not Active | Not Active | Not Active | Not Active | – | – | – | – | – | – | – | – |
| COC(=O)Nc1nc2ccc([S+]([O-])c3ccccc3)cc2[nH]1 (stereo not given) [OXFENDAZOLE] | Not Active | Not Active | Not Active | Not Active | Not Active | Not Active | Not Active | Not Active | – | – | – | – | – | – | – | – |
| CC(C(=O)O)c1ccc2oc(-c3ccc(Cl)cc3)nc2c1 (stereo not given) [BENOXAPROFEN] | Not Active | Not Active | Not Active | Not Active | Not Active | Not Active | Not Active | Not Active | – | – | – | – | – | – | – | – |
| Cc1cc2c(OCC(CNC(C)(C)C)OC(=O)c3ccccc3)cccc2[nH]1 (stereo not given) [BOPINDOLOL] | – | Not Active | Not Active | Not Active | Not Active | Not Active | Not Active | Not Active | – | – | – | – | 267 nM | 153 nM | – | – |
| Nc1ccn([C@@H]2O[C@H](CO)[C@@H](O)C2(F)F)c(=O)n1 [GEMCITABINE] | Not Active | Not Active | Not Active | Not Active | Not Active | Not Active | Not Active | Not Active | – | – | – | – | – | – | – | – |
| COc1ccc2[nH]cc(CCNC(C)=O)c2c1 [MELATONIN] | Not Active | Not Active | Not Active | Not Active | Not Active | Not Active | Not Active | Not Active | – | – | – | – | – | – | – | – |
| GADOPENTETATE DIMEGLUMINE | Not Active | Not Active | Not Active | Not Active | Not Active | Not Active | Not Active | Not Active | Not Active | Not Active | Not Active | Not Active | – | – | – | – |
| C#CC1(O)CC[C@H]2[C@@H]3CCC4=CC(=O)CC[C@@H]4[C@H]3CC[C@@]21CC (stereo not given in full) [NORGESTREL] | Not Active | – | Not Active | Not Active | Not Active | Not Active | Not Active | Not Active | – | – | – | – | – | – | 3.51 nM | 0.458 nM |
| C[n+]1ccc(-c2cc[n+](C)cc2)cc1.[Cl-].[Cl-] [PARAQUAT DICHLORIDE] | Not Active | Not Active | Not Active | Not Active | Not Active | Not Active | Not Active | Not Active | – | – | – | – | – | – | – | – |
